Test results from PMC13192270, “RhlR quorum-sensing receptor ligand sensitivity regulates the differential expression of phenazine genes in Pseudomonas aeruginosa” (Journal of Bacteriology, 2026).

Assays:
[1] = target: T1, RhlR A44W (Pseudomonas aeruginosa, UniProt P54292, A44W); experiment: E. coli prhlA-luxCDABE luciferase reporter assay; format: cell-based; conditions: even at the highest dose of C4HSL tested
T1 construct: expressed in transfected cells; host or cells: E. coli carrying pBAD-A-rhlR mutant, pCS26-prhlA-luxCDABE and pACYC-pqsE or empty pACYC
Excerpt: Previous analysis of the RhlR LBP focused on highly conserved residues that were known from other AHL-binding proteins to be important contacts for AHL molecules, particularly the lactone head group. We performed conservation analyses on 300 LuxR-type receptors to determine variable and moderately conserved residues in the LBP (Fig. 1B) and, in conjunction with our previously determined experimental structure of WT RhlR bound to the synthetic agonist mBTL, used for docking C4- and C6HSL. Based on our docking simulations, C4- and C6HSL occupy a similar position in the LBP as mBTL, a highly efficacious activator of RhlR (Fig. 1C; Fig. S1). We targeted residues A44, G46, T58, L69, Y72, D81, I84, W96, and W108 (Fig. 1B and C). These residues were selected because of their proximity to the acyl tail of C4HSL, as well as the differences in conservation that are observed at these sites. […] Transcription was monitored by light production via the expression of the luxCDABE operon controlled by the RhlR-dependent promoter of rhlA. […]
The range of responses to substitutions is best highlighted by changes at residue T58 (Fig. 2A). […] Indeed, of the LuxR-AHL experimentally determined structures, this region of the LBP is typically occupied by the acyl tail of long-chain AHLs or a hydrophobic residue ([5], [27], [29], [30], [42], [43]), a point we return to in the discussion. […]

[2] = target: T2, WT RhlR in ΔrhlI strain (Pseudomonas aeruginosa, UniProt P54292); experiment: ChIP-seq of RhlR-binding sites; format: cell-based; conditions: 2 µM C4HSL
T2 construct: Comparison of ChIP enrichment from the ΔrhlI and ΔrhlI RhlR T58L strains; endogenous in cells; host or cells: P. aeruginosa UCBPP-PA14 ΔrhlI
T2 sequence (P54292 1-241): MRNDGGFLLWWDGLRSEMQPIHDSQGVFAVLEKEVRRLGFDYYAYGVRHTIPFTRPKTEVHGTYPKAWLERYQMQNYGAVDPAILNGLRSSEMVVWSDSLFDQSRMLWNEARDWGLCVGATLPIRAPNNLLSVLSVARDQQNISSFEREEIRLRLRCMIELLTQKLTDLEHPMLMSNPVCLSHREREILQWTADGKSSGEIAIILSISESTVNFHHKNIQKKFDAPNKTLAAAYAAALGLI
Method: P. aeruginosa strains were grown overnight, back diluted 1:100 in fresh LB media, and grown to an OD600 = 2.0. Crosslinking, lysis, and immunoprecipitation were performed as previously described ([37]).

[3] = tested on: RhlR; parameters: method as in PMID 28119451; conditions: cited from earlier work

For CCCC(=O)N[C@H]1CCOC1=O [C4HSL, N-butyryl-L-homoserine lactone], the “activation by C4HSL in the reporter system” value [1] was “not activated”, the “ChIP-seq enrichment at PA14_01490 (rahU) (peak 139,733)” value [2] was 1,797.7 and the “ChIP-seq enrichment at PA14_06320 (peak 560,072)” value [2] was 1,705.2. The “ChIP-seq enrichment at PA14_10360 (peak 895,433)” value [2] was 1,134.9, the “ChIP-seq enrichment at PA14_16100*, PA14_16110 (peak 1,372,370)” value [2] was 1,180.9 and the “ChIP-seq enrichment at PA14_18800 (peak 1,620,628)” value [2] was 664.1. For the same compound, the “ChIP-seq enrichment at PA14_18810 operon (peak 1,621,028)” value [2] was 127.1, the “ChIP-seq enrichment at PA14_20130, PA14_20140 (fpr) (peak 1,735,823)” value [2] was 258.2 and the “ChIP-seq enrichment at PA14_21020 (azeB) operon, PA14_21030 (peak 1,816,906)” value [2] was 4,251.6. The “ChIP-seq enrichment at PA14_22090 (peak 1,921,598)” value [2] was 402.5, the “ChIP-seq enrichment at PA14_28250*, PA14_28260 (peak 2,444,398)” value [2] was 126.8 and the “ChIP-seq enrichment at PA14_29620, fhp operon (peak 2,568,048)” value [2] was 2,516.7. For the same compound, the “ChIP-seq enrichment at PA14_30570, PA14_30580 (vqsR) (peak 2,647,472)” value [2] was 770.7, the “ChIP-seq enrichment at PA14_30840* (peak 2,677,542)” value [2] was 7,49.74 and the “ChIP-seq enrichment at PA14_37745 operon (peak 3,364,761)” value [2] was 408.8. The “ChIP-seq enrichment at PA14_48140 operon (peak 4,285,523)” value [2] was 311.1, the “ChIP-seq enrichment at PA14_48530 operon (peak 4,313,855)” value [2] was 838.3 and the “ChIP-seq enrichment at PA14_49310 (peak 4,382,169)” value [2] was 1,250.8. For the same compound, the “ChIP-seq enrichment at PA14_49740, PA14_49750 operon (peak 4,425,570)” value [2] was 1,588.8, the “ChIP-seq enrichment at PA14_57970*, PA14_57980 (peak 5,159,548)” value [2] was 826 and the “ChIP-seq enrichment at PA14_59180* (peak 5,268,881)” value [2] was 381.4. The “ChIP-seq enrichment at PA_48530* (peak 4,314,560)” value [2] was 258.8, the “ChIP-seq enrichment at arcD operon (peak 6,093,032)” value [2] was 1,302.3 and the “ChIP-seq enrichment at hcnA operon, exoY (peak 3,236,436)” value [2] was 2,43.83. The “ChIP-seq enrichment at hsiA2 operon, hcpD (peak 3,831,541)” value [2] was 1,370.2, the “ChIP-seq enrichment at lasA (peak 3,600,666)” value [2] was 239.4 and the “ChIP-seq enrichment at lasB (peak 1,387,361)” value [2] was 597.9. The “ChIP-seq enrichment at lecB, PA14_20620 operon (peak 1,774,336)” value [2] was 16,502.8, the “ChIP-seq enrichment at pa1L (peak 2,721,761)” value [2] was 204.8 and the “ChIP-seq enrichment at peak 5,414,219” value [2] was 519. For the same compound, the “ChIP-seq enrichment at phzA1 operon, phzM (peak 813,529)” value [2] was 5,438.8, the “ChIP-seq enrichment at phzA2 operon (peak 3,561,969)” value [2] was 575.2 and the “ChIP-seq enrichment at phzB1*, phzC1 (peak 812,427)” value [2] was 1,614.1. The “ChIP-seq enrichment at phzB2*, phzC2 (peak 3,561,157)” value [2] was 214.5, the “ChIP-seq enrichment at phzH (peak 64,211)” value [2] was 1,937.1 and the “ChIP-seq enrichment at rhlA operon (peak 1,648,391)” value [2] was 4,107.6. For the same compound, the “ChIP-seq enrichment at rhlI (peak 1,651,804)” value [2] was 562.1, the “ChIP-seq enrichment at rmlB operon (peak 6,082,366)” value [2] was 2,46.6 and the “ChIP-seq enrichment at rpsL operon (peak 754,615)” value [2] was 580.9. The “ChIP-seq enrichment at tnpS, tnpT operon (peak 3,188,223)” value [2] was 365.2 and the EC50 [3] was ~5 µM.
